According to publication PMC6572064, “Discovery of 2-(1-(3-(4-Chloroxyphenyl)-3-oxo- propyl)pyrrolidine-3-yl)-1H-benzo[d]imidazole-4-carboxamide: A Potent Poly(ADP-ribose) Polymerase (PARP) Inhibitor for Treatment of Cancer” (Molecules, 2019):
Read-outs that look alike come from different tables or passages of the source.

What was measured:
PARP-1 = target: T1, PARP-1 (Homo sapiens, UniProt P09874); assay: PARP-1 inhibition assay (PARP-1 Chemiluminescent Assay Kit, BPS Bioscience); assay type: biochemical; settings: 10 nM compound
T1 construct: purchased BPS Bioscience 80569
Description: (§1) The PARP-1 and PARP-2 inhibition assays were performed in outsourcing, by a CRO company, Shanghai Medicilon Inc. (Shanghai, China). […] Briefly, PARP-1 or PARP-2 biotinylated substrate was incubated with compounds or solvent control at varying concentrations and an assay buffer containing the PARP-1 or PARP-2 enzyme.

PARP-2 = target: T2, PARP-2 (Homo sapiens, UniProt Q9UGN5); assay: PARP-2 inhibition assay (PARP-2 Chemiluminescent Assay Kit, BPS Bioscience); assay type: biochemical; settings: 10 nM compound
T2 construct: purchased BPS Bioscience 80552
Description: as §1

[1] = test system: MDA-MB-436 (a BRCA-1-mutated breast cancer cell line); assay: Cell proliferation assay, three-day, CellTiter-Glo, MDA-MB-436; assay type: cell-based; settings: for inhibition at 0.00508 µM / inhibition at 0.0152 µM / inhibition at 0.0457 µM / inhibition at 0.41 µM / inhibition at 1.23 µM / inhibition at 3.7 µM / inhibition at 11.11 µM / inhibition at 33.33 µM / inhibition at 100 µM / IC50: Homo sapiens; for inhibition at 0.00508 µM: MDA-MB-436, MDA-MB-436, Conc. 0.00508 uM; for inhibition at 0.0152 µM: MDA-MB-436, MDA-MB-436, Conc. 0.0152 uM; for inhibition at 0.0457 µM: MDA-MB-436, MDA-MB-436, Conc. 0.0457 uM; for inhibition at 0.41 µM: MDA-MB-436, MDA-MB-436, Conc. 0.41 uM; for inhibition at 1.23 µM: MDA-MB-436, MDA-MB-436, Conc. 1.23 uM; for inhibition at 3.7 µM: MDA-MB-436, MDA-MB-436, Conc. 3.70 uM; for inhibition at 11.11 µM: MDA-MB-436, MDA-MB-436, Conc. 11.11 uM; for inhibition at 33.33 µM: MDA-MB-436, MDA-MB-436, Conc. 33.33 uM; for inhibition at 100 µM: MDA-MB-436, MDA-MB-436, Conc. 100.00 uM
Description: (§2) A three-day assay was conducted. A cell suspension was prepared. Cell density was counted by an automated cell counter and then diluted to the required density, according to seeding density. 50 μL cells were seeded into 384-well plate in growth medium according to the plate map. The cells were incubated at 37 °C, 5% CO2 overnight.
(§3) 200× compound solution in DMSO was prepared and diluted with growth medium to 26× final concentration by addition of 26 μL 200× compounds to 174 μL growth medium. Then 2 μL of diluted compound solution was added to cells and the cell was incubated at 37 °C, 5% CO2 for 72 h.
(§4) The assay plate was equilibrated to room temperature prior to measurement. 15 μL of CellTiter-Glo Reagent was added into each well and the contents were mixed for 2 min on an orbital shaker to induce cell lysis. The cells were incubated at room temperature for 60 min to stabilize luminescent signal. Luminescence was recorded on the Envision system.

[2] = test system: CAPAN-1 (a BRCA-2-mutated pancreatic cancer cell line); assay: Cell proliferation assay, three-day, CellTiter-Glo, CAPAN-1; assay type: cell-based; settings: Homo sapiens; for inhibition at 0.00508 µM: CAPAN-1, 0.00508 uM; for inhibition at 0.0152 µM: CAPAN-1, 0.0152 uM; for inhibition at 0.0457 µM: CAPAN-1, 0.0457 uM; for inhibition at […]: CAPAN-1, 0.14 uM; for inhibition at 0.41 µM: CAPAN-1, 0.41 uM; for inhibition at 1.23 µM: CAPAN-1, 1.23 uM; for inhibition at 3.7 µM: CAPAN-1, 3.70 uM; for inhibition at 11.11 µM: CAPAN-1, 11.11 uM; for inhibition at 33.33 µM: CAPAN-1, 33.33 uM; for inhibition at 100 µM: CAPAN-1, 100.00 uM
Description: as §2, §3, §4

T2 sequence (Q9UGN5 whole entry): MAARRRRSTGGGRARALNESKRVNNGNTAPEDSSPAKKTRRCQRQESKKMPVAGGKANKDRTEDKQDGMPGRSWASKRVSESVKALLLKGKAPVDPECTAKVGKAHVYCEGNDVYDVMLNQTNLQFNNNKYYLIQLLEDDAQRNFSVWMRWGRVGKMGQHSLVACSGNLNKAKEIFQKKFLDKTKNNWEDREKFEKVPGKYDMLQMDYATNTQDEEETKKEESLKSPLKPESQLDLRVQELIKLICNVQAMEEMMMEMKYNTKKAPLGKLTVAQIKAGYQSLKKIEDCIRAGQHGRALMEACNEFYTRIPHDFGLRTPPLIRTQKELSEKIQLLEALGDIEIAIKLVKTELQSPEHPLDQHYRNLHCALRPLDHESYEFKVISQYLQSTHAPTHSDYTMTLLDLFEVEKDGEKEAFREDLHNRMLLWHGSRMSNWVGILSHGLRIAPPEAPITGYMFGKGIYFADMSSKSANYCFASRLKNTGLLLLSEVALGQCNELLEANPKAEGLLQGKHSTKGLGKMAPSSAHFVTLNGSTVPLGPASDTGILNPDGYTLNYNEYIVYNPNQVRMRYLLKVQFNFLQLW
T1 sequence (P09874 whole entry): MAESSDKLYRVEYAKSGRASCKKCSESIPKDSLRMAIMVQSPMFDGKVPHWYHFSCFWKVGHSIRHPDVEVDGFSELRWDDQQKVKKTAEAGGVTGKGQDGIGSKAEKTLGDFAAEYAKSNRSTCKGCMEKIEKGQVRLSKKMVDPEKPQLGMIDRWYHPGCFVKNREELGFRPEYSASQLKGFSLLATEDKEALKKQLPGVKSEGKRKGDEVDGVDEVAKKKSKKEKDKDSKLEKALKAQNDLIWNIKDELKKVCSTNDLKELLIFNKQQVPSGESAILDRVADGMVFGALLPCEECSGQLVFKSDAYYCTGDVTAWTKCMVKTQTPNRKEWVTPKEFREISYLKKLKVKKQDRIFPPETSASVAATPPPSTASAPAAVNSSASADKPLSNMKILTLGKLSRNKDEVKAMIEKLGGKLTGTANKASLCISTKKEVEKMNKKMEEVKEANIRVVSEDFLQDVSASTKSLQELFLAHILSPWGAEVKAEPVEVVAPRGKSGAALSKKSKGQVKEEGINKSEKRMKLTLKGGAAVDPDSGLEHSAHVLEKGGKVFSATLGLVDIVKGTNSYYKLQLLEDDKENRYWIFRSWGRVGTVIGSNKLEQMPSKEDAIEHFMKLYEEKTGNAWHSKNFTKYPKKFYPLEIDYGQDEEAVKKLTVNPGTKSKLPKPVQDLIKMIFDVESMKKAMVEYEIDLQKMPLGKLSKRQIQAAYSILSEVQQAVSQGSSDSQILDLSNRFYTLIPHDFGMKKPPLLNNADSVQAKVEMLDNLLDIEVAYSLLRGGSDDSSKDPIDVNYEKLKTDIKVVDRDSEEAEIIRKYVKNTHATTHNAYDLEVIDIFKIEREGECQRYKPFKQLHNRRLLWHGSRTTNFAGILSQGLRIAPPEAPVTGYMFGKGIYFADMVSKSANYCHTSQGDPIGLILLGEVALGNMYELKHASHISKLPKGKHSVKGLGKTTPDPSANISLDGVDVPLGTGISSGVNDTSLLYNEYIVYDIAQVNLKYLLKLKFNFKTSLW

In the case of NC(=O)c1cccc2[nH]c(C3CCN(CC(O)c4ccccc4)C3)nc12 (stereo not drawn) [Compound 5cf, 2-(1-(2-Hydroxy-2-phenylethyl)pyrrolidin-3-yl)-1H-benzo[d]imidazole-4-carboxamide], the inhibition at 0.01 µM (PARP-1; supplement sheet, read-out: 10 nM inhibition% PAPR-1) is reported as 5.03%, the inhibition at 0.01 µM (PARP-1; read-out: PARP-1 Inhibition % (10 nM)) is reported as 5% and the inhibition at 0.01 µM (PARP-2; supplement sheet, read-out: 10 nM inhibition% PAPR-2) is reported as 8.96%. It also gave an inhibition at 0.01 µM (PARP-2; read-out: PARP-2 Inhibition % (10 nM)) of 9%, an inhibition at 0.00508 µM ([1]; replicate 1, read-out: Inh % 1) of -0.144% and an inhibition at 0.00508 µM ([1]; replicate 2, read-out: Inh % 2) of -3.2%. For the same molecule, the inhibition at 0.0152 µM ([1]; replicate 1, read-out: Inh % 1) was -5.7%, the inhibition at 0.0152 µM ([1]; replicate 2, read-out: Inh % 2) was -4.4% and the inhibition at 0.0457 µM ([1]; replicate 1, read-out: Inh % 1) was -8.5%. It also gave an inhibition at 0.0457 µM ([1]; replicate 2, read-out: Inh % 2) of -9.4%, an inhibition at 0.41 µM ([1]; replicate 1, read-out: Inh % 1) of -14.6% and an inhibition at 0.41 µM ([1]; replicate 2, read-out: Inh % 2) of -10.9%. For the same molecule, the inhibition at 1.23 µM ([1]; replicate 1, read-out: Inh % 1) was -9.9%, the inhibition at 1.23 µM ([1]; replicate 2, read-out: Inh % 2) was -7% and the inhibition at 3.7 µM ([1]; replicate 1, read-out: Inh % 1) was 1.6%. For the same molecule, the inhibition at 3.7 µM ([1]; replicate 2, read-out: Inh % 2) was -6.5%, the inhibition at 11.11 µM ([1]; replicate 1, read-out: Inh % 1) was -3.4% and the inhibition at 11.11 µM ([1]; replicate 2, read-out: Inh % 2) was -9.3%. For the same molecule, the inhibition at 33.33 µM ([1]; replicate 1, read-out: Inh % 1) was 17.3%, the inhibition at 33.33 µM ([1]; replicate 2, read-out: Inh % 2) was 8.3% and the inhibition at 100 µM ([1]; replicate 1, read-out: Inh % 1) was 86.9%. It also gave an inhibition at 100 µM ([1]; replicate 2, read-out: Inh % 2) of 70.9%, an IC50 ([1]; MDA-MB-436, 72 h, CellTiter-Glo, read-out: MDA-MB-436 IC50) of 61 µM and an IC50 ([1]; MDA-MB-436, 72 h, supplement Summary sheet, read-out: IC50) of 61 µM. It also gave an IC50 ([1]; MDA-MB-436, curve fit list, no unit in the cell, concentration in uM, read-out: IC50) of 61 µM, a LogIC50 ([1]; MDA-MB-436, curve fit on Log (uM) concentrations) of 1.786 and a Top ([1]; MDA-MB-436, curve fit parameter (Inh %), '= 100.0' is a constrained value) of 104.3. For the same molecule, the IC50 ([2]; CAPAN-1, 72 h, CellTiter-Glo, read-out: CAPAN-1 IC50) was over 100 µM, the inhibition at 0.00508 µM ([2]; replicate 1, read-out: Inh % 1) was -1.7% and the inhibition at 0.00508 µM ([2]; replicate 2, read-out: Inh % 2) was -8.4%. The inhibition at 0.0152 µM ([2]; replicate 1, read-out: Inh % 1) was 3.2%, the inhibition at 0.0152 µM ([2]; replicate 2, read-out: Inh % 2) was -3.1% and the inhibition at 0.0457 µM ([2]; replicate 1, read-out: Inh % 1) was -6.9%. For the same molecule, the inhibition at 0.0457 µM ([2]; replicate 2, read-out: Inh % 2) was -3.4%, the inhibition at […] ([2]; replicate 1, read-out: Inh % 1) was 10.3% and the inhibition at […] ([2]; replicate 2, read-out: Inh % 2) was -1.9%. For the same molecule, the inhibition at 0.41 µM ([2]; replicate 1, read-out: Inh % 1) was 9.4%, the inhibition at 0.41 µM ([2]; replicate 2, read-out: Inh % 2) was 0.649% and the inhibition at 1.23 µM ([2]; replicate 1, read-out: Inh % 1) was 5.9%. It also gave an inhibition at 1.23 µM ([2]; replicate 2, read-out: Inh % 2) of 8.1%, an inhibition at 3.7 µM ([2]; replicate 1, read-out: Inh % 1) of 13.8% and an inhibition at 3.7 µM ([2]; replicate 2, read-out: Inh % 2) of 3.5%. For the same molecule, the inhibition at 11.11 µM ([2]; replicate 1, read-out: Inh % 1) was 7.2%, the inhibition at 11.11 µM ([2]; replicate 2, read-out: Inh % 2) was -0.268% and the inhibition at 33.33 µM ([2]; replicate 1, read-out: Inh % 1) was 15.8%. For the same molecule, the inhibition at 33.33 µM ([2]; replicate 2, read-out: Inh % 2) was -1.9%, the inhibition at 100 µM ([2]; replicate 1, read-out: Inh % 1) was 29.7% and the inhibition at 100 µM ([2]; replicate 2, read-out: Inh % 2) was 21.1%.
